# Reference: PubChem BioAssay AID1259407 (Chemical Carcinogenesis Research Information System (CCRIS), 2018)
# Activity calls are given as the source filed them. The rule behind the calls is not given here.
# Test system: CCRIS mutagenicity, Ames/micronucleus/aberration tests
# Assay: CCRIS mutagenicity studies
# [1] = Test System: AMES SALMONELLA TYPHIMURIUM, Strain/Indicator: TA98, Metabolic Activation: NONE, Method: STANDARD PLATE
# [2] = Test System: AMES SALMONELLA TYPHIMURIUM, Strain/Indicator: TA98, Metabolic Activation: RAT, LIVER, S-9, AROCLOR 1254, Method: STANDARD PLATE
# [3] = Test System: AMES SALMONELLA TYPHIMURIUM, Strain/Indicator: TA100, Metabolic Activation: NONE, Method: STANDARD PLATE
# [4] = Test System: AMES SALMONELLA TYPHIMURIUM, Strain/Indicator: TA100, Metabolic Activation: RAT, LIVER, S-9, AROCLOR 1254, Method: STANDARD PLATE
# [5] = Test System: AMES SALMONELLA TYPHIMURIUM, Strain/Indicator: TA98, Metabolic Activation: NONE, Method: PREINCUBATION
# [6] = Test System: AMES SALMONELLA TYPHIMURIUM, Strain/Indicator: TA100, Metabolic Activation: NONE, Method: PREINCUBATION
# [7] = Test System: AMES SALMONELLA TYPHIMURIUM, Strain/Indicator: TA102, Metabolic Activation: NONE, Method: STANDARD PLATE
# [8] = Test System: AMES SALMONELLA TYPHIMURIUM, Strain/Indicator: TA97, Metabolic Activation: NONE, Method: PREINCUBATION
# [9] = Test System: AMES SALMONELLA TYPHIMURIUM, Strain/Indicator: TA97, Metabolic Activation: RAT, LIVER, S-9, AROCLOR 1254, Method: PREINCUBATION
# [10] = Test System: AMES SALMONELLA TYPHIMURIUM, Strain/Indicator: TA102, Metabolic Activation: NONE, Method: PREINCUBATION
# [11] = Test System: AMES SALMONELLA TYPHIMURIUM, Strain/Indicator: TA102, Metabolic Activation: RAT, LIVER, S-9, AROCLOR 1254, Method: PREINCUBATION
smiles,measurement,setting,value
O=C(/C=C/c1ccc(F)cc1)c1ccccc1,mutagenic call,[1],inactive; negative
same,mutagenic call,[2],inactive; negative
same,mutagenic call,[3],inactive; negative
same,mutagenic call,[4],inactive; negative
[Cl][Ga]([Cl])[Cl],mutagenic call,[5],inactive; negative
same,mutagenic call,"Test System: AMES SALMONELLA TYPHIMURIUM, Strain/Indicator: TA98, Metabolic Activation: RAT, LIVER, S-9 (10%), Method: PREINCUBATION",inactive; negative
same,mutagenic call,[6],inactive; negative
same,mutagenic call,"Test System: AMES SALMONELLA TYPHIMURIUM, Strain/Indicator: TA100, Metabolic Activation: RAT, LIVER, S-9 (10%), Method: PREINCUBATION",inactive; negative
Cn1c2ccccc2c2nn[n+]([O-])c(C(=O)OCCCl)c21,mutagenic call,"Test System: AMES SALMONELLA TYPHIMURIUM, Strain/Indicator: TA97, Metabolic Activation: NONE, Method: STANDARD PLATE",active; positive
same,mutagenic call,"Test System: AMES SALMONELLA TYPHIMURIUM, Strain/Indicator: TA97, Metabolic Activation: RAT, LIVER, S-9, AROCLOR 1254 (4%, 10%), Method: STANDARD PLATE",active; positive
same,mutagenic call,[1],active; positive
same,mutagenic call,"Test System: AMES SALMONELLA TYPHIMURIUM, Strain/Indicator: TA98, Metabolic Activation: RAT, LIVER, S-9, AROCLOR 1254 (4%, 10%), Method: STANDARD PLATE",active; positive
same,mutagenic call,[3],inactive; negative
same,mutagenic call,"Test System: AMES SALMONELLA TYPHIMURIUM, Strain/Indicator: TA100, Metabolic Activation: RAT, LIVER, S-9, AROCLOR 1254 (4%, 10%), Method: STANDARD PLATE",inactive; negative
same,mutagenic call,[7],inactive; negative
same,mutagenic call,"Test System: AMES SALMONELLA TYPHIMURIUM, Strain/Indicator: TA102, Metabolic Activation: RAT, LIVER, S-9, AROCLOR 1254 (4%, 10%), Method: STANDARD PLATE",inactive; negative
N#CC1=Cc2cccc3cccc1c23,mutagenic call,[1],inactive; negative
same,mutagenic call,[2],inactive; negative
same,mutagenic call,[3],active; positive
same,mutagenic call,[4],active; positive
CC\C=C/C=C\C=C/C=C\C=C/OCCC,mutagenic call,[6],active; positive
Oc1ccc(Cl)cc1Cc1cc(Cl)ccc1O,mutagenic call,"Test System: AMES SALMONELLA TYPHIMURIUM, Strain/Indicator: TA98, Metabolic Activation: HAMSTER, LIVER, S-9, AROCLOR 1254 (30%), Method: PREINCUBATION",inactive; negative
same,mutagenic call,[5],inactive; negative
same,mutagenic call,"Test System: AMES SALMONELLA TYPHIMURIUM, Strain/Indicator: TA98, Metabolic Activation: RAT, LIVER, S-9, AROCLOR 1254 (30%), Method: PREINCUBATION",inactive; negative
same,mutagenic call,[6],inactive; negative
same,mutagenic call,"Test System: AMES SALMONELLA TYPHIMURIUM, Strain/Indicator: TA1535, Metabolic Activation: HAMSTER, LIVER, S-9, AROCLOR 1254 (30%), Method: PREINCUBATION",inactive; negative
C#CCc1ccc(COC(=O)C2C(C=C(C)C)C2(C)C)o1 (centres undefined),mutagenic call,"Test System: AMES SALMONELLA TYPHIMURIUM, Strain/Indicator: TA98",inactive; negative
same,mutagenic call,"Test System: AMES SALMONELLA TYPHIMURIUM, Strain/Indicator: TA98, Metabolic Activation: NONE",inactive; negative
same,mutagenic call,"Test System: AMES SALMONELLA TYPHIMURIUM, Strain/Indicator: TA100",active; positive
same,mutagenic call,"Test System: AMES SALMONELLA TYPHIMURIUM, Strain/Indicator: TA100, Metabolic Activation: NONE",inactive; negative
O=c1ccn([C@@H]2O[C@H](COP(=O)(O)O)[C@@H](O)[C@H]2O)c(=O)[nH]1,mutagenic call,[8],inactive; negative
same,mutagenic call,[9],inactive; negative
same,mutagenic call,[10],inactive; negative
same,mutagenic call,[11],inactive; negative
CC(=O)c1ccc(Cl)c(Cl)c1Cl,mutagenic call,"Test System: AMES SALMONELLA TYPHIMURIUM, Strain/Indicator: TA98, Metabolic Activation: HAMSTER, LIVER, S-9, AROCLOR 1254, Method: STANDARD PLATE",active; positive
same,mutagenic call,[1],inactive; negative
same,mutagenic call,[2],inactive; negative
same,mutagenic call,"Test System: AMES SALMONELLA TYPHIMURIUM, Strain/Indicator: TA100, Metabolic Activation: HAMSTER, LIVER, S-9, AROCLOR 1254, Method: STANDARD PLATE",active; positive
same,mutagenic call,[3],inactive; negative
same,mutagenic call,[4],active; positive
same,mutagenic call,"Test System: MOUSE LYMPHOMA, Strain/Indicator: L5178Y (TK+/TK-), Metabolic Activation: NONE, Method: SUSPENSION/PLATE",inactive; negative. reevaluation of results: inconclusive
same,mutagenic call,"Test System: MOUSE LYMPHOMA, Strain/Indicator: L5178Y (TK+/TK-), Metabolic Activation: RAT, LIVER, S-9, AROCLOR 1254, Method: SUSPENSION/PLATE",inactive; negative. reevaluation of results: negative
CCCCCC,mutagenic call,[8],inactive; negative
same,mutagenic call,[9],inactive; negative
same,mutagenic call,"Test System: AMES SALMONELLA TYPHIMURIUM, Strain/Indicator: TA98, Metabolic Activation: HAMSTER, LIVER, S-9, AROCLOR 1254 (10%), Method: PREINCUBATION",inactive; negative
same,mutagenic call,[5],inactive; negative
same,mutagenic call,"Test System: AMES SALMONELLA TYPHIMURIUM, Strain/Indicator: TA98, Metabolic Activation: RAT, LIVER, S-9, AROCLOR 1254 (10%), Method: PREINCUBATION",inactive; negative
same,mutagenic call,"Test System: AMES SALMONELLA TYPHIMURIUM, Strain/Indicator: TA100, Metabolic Activation: HAMSTER, LIVER, S-9, AROCLOR 1254 (10%), Method: PREINCUBATION",inactive; negative
same,mutagenic call,[6],inactive; negative
same,mutagenic call,"Test System: AMES SALMONELLA TYPHIMURIUM, Strain/Indicator: TA100, Metabolic Activation: RAT, LIVER, S-9, AROCLOR 1254 (10%), Method: PREINCUBATION",inactive; negative
same,mutagenic call,[10],inactive; negative
same,mutagenic call,[11],inactive; negative
same,mutagenic call,"Test System: AMES SALMONELLA TYPHIMURIUM, Strain/Indicator: TA1535, Metabolic Activation: HAMSTER, LIVER, S-9, AROCLOR 1254 (10%), Method: PREINCUBATION",inactive; negative
same,mutagenic call,"Test System: AMES SALMONELLA TYPHIMURIUM, Strain/Indicator: TA1535, Metabolic Activation: NONE, Method: PREINCUBATION",inactive; negative
same,mutagenic call,"Test System: AMES SALMONELLA TYPHIMURIUM, Strain/Indicator: TA1535, Metabolic Activation: RAT, LIVER, S-9, AROCLOR 1254 (10%), Method: PREINCUBATION",inactive; negative
same,mutagenic call,"Test System: AMES SALMONELLA TYPHIMURIUM, Strain/Indicator: TA1537, Metabolic Activation: HAMSTER, LIVER, S-9, AROCLOR 1254 (10%), Method: PREINCUBATION",inactive; negative
same,mutagenic call,"Test System: AMES SALMONELLA TYPHIMURIUM, Strain/Indicator: TA1537, Metabolic Activation: NONE, Method: PREINCUBATION",inactive; negative
same,mutagenic call,"Test System: AMES SALMONELLA TYPHIMURIUM, Strain/Indicator: TA1537, Metabolic Activation: RAT, LIVER, S-9, AROCLOR 1254 (10%), Method: PREINCUBATION",inactive; negative
O.O.O.O.O.O.O.[Cl-].[Cl-].[Cl-].[Fe+3],mutagenic call,[7],inactive; negative
same,mutagenic call,"Test System: Mouse lymphoma, Strain/Indicator: L5178Y (tk+/tk-), Metabolic Activation: None, Method: Suspension/plate",inactive; negative
same,mutagenic call,"Test System: Mouse lymphoma, Strain/Indicator: L5178Y (tk+/tk-), Metabolic Activation: Rat, Liver, S-9, Aroclor 1254, Method: Suspension/plate",inactive; inconclusive (previous evaluation: negative)
Nc1ccc(O)c2c1C(=O)c1ccccc1C2=O,mutagenic call,[2],inactive; negative
same,mutagenic call,[3],inactive; negative
same,mutagenic call,[4],inactive; negative
same,mutagenic call,"Test System: AMES SALMONELLA TYPHIMURIUM, Strain/Indicator: TA1535, Metabolic Activation: NONE, Method: STANDARD PLATE",inactive; negative
same,mutagenic call,"Test System: AMES SALMONELLA TYPHIMURIUM, Strain/Indicator: TA1535, Metabolic Activation: RAT, LIVER, S-9, AROCLOR 1254, Method: STANDARD PLATE",inactive; negative
same,mutagenic call,"Test System: AMES SALMONELLA TYPHIMURIUM, Strain/Indicator: TA1537, Metabolic Activation: NONE, Method: STANDARD PLATE",active; positive
same,mutagenic call,"Test System: AMES SALMONELLA TYPHIMURIUM, Strain/Indicator: TA1537, Metabolic Activation: RAT, LIVER, S-9, AROCLOR 1254, Method: STANDARD PLATE",active; positive
same,mutagenic call,"Test System: AMES SALMONELLA TYPHIMURIUM, Strain/Indicator: TA1538, Metabolic Activation: RAT, LIVER, S-9, AROCLOR 1254, Method: STANDARD PLATE",inactive; negative
